Experimental data from paper PMC5343510 (Molecular pharmaceutics, 2016).

Columns and labels:
[1] = tested on: KB tumor xenografts (FR+); assay: Ex vivo biodistribution in nude mice bearing KB tumor xenografts; details: 120 min p.i., ± SEM
[2] = molecular target: FR (folate receptor) on KB cells (Homo sapiens, UniProt P15328); assay: Relative binding affinity: inhibition of 3H-folate binding to cultured KB cells; details: read-out: mean IC50 (relative binding affinity, block of 3H-folic acid binding), 10 nM 3H-folate, 1 h, 37 °C
Sequence of FR (folate receptor) on KB cells (P15328 25-257): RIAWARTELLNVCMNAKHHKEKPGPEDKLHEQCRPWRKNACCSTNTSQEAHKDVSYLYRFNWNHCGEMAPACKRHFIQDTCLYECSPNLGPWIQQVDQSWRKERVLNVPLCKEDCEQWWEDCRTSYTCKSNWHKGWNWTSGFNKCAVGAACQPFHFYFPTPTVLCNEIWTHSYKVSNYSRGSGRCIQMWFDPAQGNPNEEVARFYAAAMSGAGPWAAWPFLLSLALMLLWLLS

[NH-][C@@H](CNC(=O)CC[C@@H](NC(=O)c1ccc(NCc2cnc3nc(N)[nH]c(=O)c3n2)cc1)C(=O)O)C(=O)[N-][C@@H](CC(=O)O)C(=O)[N-][C@@H](C[S-])C(=O)O.[O]=[Tc+4] [^99mTc-EC20]
Biodistribution: Blood ([1]; Control): 0.3 ± 0.01 %ID/g | Biodistribution: Heart ([1]; Control): 1.9 ± 0.1 %ID/g | Biodistribution: KB Tumor ([1]; Control): 10.9 ± 0.6 %ID/g | Biodistribution: Kidney ([1]; Control): 113.0 ± 3.6 %ID/g | Biodistribution: Liver ([1]; Control): 4.1 ± 0.3 %ID/g | Biodistribution: Lung ([1]; Control): 2.1 ± 0.1 %ID/g | Biodistribution: Muscle ([1]; Control): 1.2 ± 0.04 %ID/g | Biodistribution: Plasma ([1]; Control): 0.5 ± 0.03 %ID/g | Biodistribution: Spleen ([1]; Control): 0.8 ± 0.1 %ID/g | KB Tumor/Blood ratio ([1]; Control): 41.5 ± 2.2 | KB Tumor/Kidney ratio ([1]; Control): 0.1 ± 0.01 | KB Tumor/Liver ratio ([1]; Control): 3.1 ± 0.3 | Biodistribution: Blood ([1]; FA Block (100 μg folic acid)): 0.3 ± 0.1 %ID/g | Biodistribution: Heart ([1]; FA Block (100 μg folic acid)): 0.1 ± 0.02 %ID/g | Biodistribution: KB Tumor ([1]; FA Block (100 μg folic acid)): 0.9 ± 0.1 %ID/g | Biodistribution: Kidney ([1]; FA Block (100 μg folic acid)): 6.7 ± 1.6 %ID/g | Biodistribution: Liver ([1]; FA Block (100 μg folic acid)): 2.5 ± 0.5 %ID/g | Biodistribution: Lung ([1]; FA Block (100 μg folic acid)): 0.8 ± 0.2 %ID/g | Biodistribution: Muscle ([1]; FA Block (100 μg folic acid)): 0.1 ± 0.02 %ID/g | Biodistribution: Plasma ([1]; FA Block (100 μg folic acid)): 0.5 ± 0.1 %ID/g | Biodistribution: Spleen ([1]; FA Block (100 μg folic acid)): 0.5 ± 0.2 %ID/g | KB Tumor/Blood ratio ([1]; FA Block (100 μg folic acid)): 2.9 ± 0.4 | KB Tumor/Kidney ratio ([1]; FA Block (100 μg folic acid)): 0.1 ± 0.02 | KB Tumor/Liver ratio ([1]; FA Block (100 μg folic acid)): 0.4 ± 0.1

Nc1nc2ncc(CNc3ccc(C(=O)N[C@@H](CCC(=O)NCCOCCOCCNC(=O)CN4CCN(CC(=O)O)CCN(CC(=O)O)CC4)C(=O)O)cc3)nc2c(=O)[nH]1 [folate-NOTA]
IC50 [2]: 0.0187 µM
